Experimental findings from patent US20030135023A1, “Peptide structures useful for competitive modulation of dipeptidyl peptidase IV catalysis” (priority 2001, published 2003) are described below.

Structures are written as SMILES. Square brackets hold non-standard residues; d marks the D form. Peptide text beside a SMILES is read from it. Tle = CC(C)(C)[C@H](N)C(=O)O

For this test, the target named is purified porcine DP IV (Sus scrofa, UniProt P22411). The test is described as follows: Determination of Ki-values, Gly-Pro-pNA cleavage by DP IV. The test is classed as biochemical. The conditions noted are these: Gly-Pro-pNA 0.05-0.4 mM. The method, then:
100 μl inhibitor stock solution were mixed with 100 μl buffer (HEPES pH 7.6) and 50 μl substrate (Gly-Pro-pNA, final concentration 0.4 mM) and preincubated at 30° C. Reaction was started by addition of 20 μl purified porcine DP IV. Formation of the product pNA was measured at 405 nm over 10 min using the HTS 7000 Plus plate reader (Perkin Elmer) and slopes were calculated. The final inhibitor concentrations ranged between 1 mM and 30 nM.
Calculations were performed using the GraFit Software.

Chain of purified porcine DP IV (P22411 whole entry): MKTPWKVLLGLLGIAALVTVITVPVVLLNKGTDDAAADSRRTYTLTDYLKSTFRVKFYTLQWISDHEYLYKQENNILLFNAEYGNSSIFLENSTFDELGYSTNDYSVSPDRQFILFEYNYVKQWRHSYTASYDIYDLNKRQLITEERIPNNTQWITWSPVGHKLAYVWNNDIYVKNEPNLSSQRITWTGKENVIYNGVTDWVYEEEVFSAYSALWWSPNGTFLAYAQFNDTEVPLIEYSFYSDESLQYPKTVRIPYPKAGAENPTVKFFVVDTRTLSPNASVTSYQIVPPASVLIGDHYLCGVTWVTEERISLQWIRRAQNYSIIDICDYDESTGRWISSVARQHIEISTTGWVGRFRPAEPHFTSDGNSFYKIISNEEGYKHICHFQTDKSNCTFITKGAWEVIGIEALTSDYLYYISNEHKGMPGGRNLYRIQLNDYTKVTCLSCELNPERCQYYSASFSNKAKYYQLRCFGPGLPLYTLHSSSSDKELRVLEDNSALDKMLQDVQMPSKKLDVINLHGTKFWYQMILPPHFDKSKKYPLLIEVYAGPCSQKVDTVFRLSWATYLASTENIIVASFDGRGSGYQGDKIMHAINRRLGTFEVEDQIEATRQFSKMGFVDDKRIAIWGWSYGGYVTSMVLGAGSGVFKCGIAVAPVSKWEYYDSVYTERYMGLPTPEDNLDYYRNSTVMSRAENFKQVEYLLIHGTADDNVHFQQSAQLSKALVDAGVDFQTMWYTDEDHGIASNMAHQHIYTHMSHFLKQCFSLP

In general, Ki refers to the equilibrium dissociation constant of an inhibitor or competing ligand from its target. `CC[C@H](C)[C@H](NC(=O)[C@@H]1CCCN1C(=O)[C@@H](N)C(C)(C)C)C(=O)O` [t-butyl-Gly-Pro-Ile] (H-[Tle]-Pro-Ile-OH; N-terminus and C-terminus assumed): the Ki was 3.1 µM.
